Reference: patent publication US9636311B2, “N,N′-di-1 naphthylguanidine HCl (NAGH) and N,N′-di-p-nitrophenylguanidine HCl (NAD) treatment for stroke at delayed timepoints” (University of South Florida, priority 2012, dated 2017)

How the values were obtained:
Type in all cases: in vivo, rat
[1] = tested on: rats following MCAO; assay: Spontaneous activity (automated activity monitor) after MCAO; settings: 1 month post MCAO
Description: (§1) MCAO surgeries were performed as described elsewhere (Vendrame M, Cassady C J, Newcomb J, Butler T, Pennypacker K R, Zigova T, et al. Stroke. 2004; 35:2390-2395). Briefly, rats were anesthetized with isoflurane, and the right common carotid and external carotid arteries were exposed using blunt dissection techniques. The vagus nerve was separated from common carotid artery and the external carotid artery was ligated proximally, and transected near the bifurcation. An embolus 40 mm in length (4.0 siliconized monofilament) was inserted into the external carotid artery and fed distally into the origin of the middle cerebral artery (˜25 mm from insertion) through the internal carotid artery. Blood samples were taken and analyzed using an i-STAT handheld analyzer for hemoglobin, hematocrit, ionized calcium, glucose, sodium, potassium, pH, pCO2, HCO3, TCO2, base excess, pO2, and O2. Cerebral blood flow was recorded using a Laser Doppler Monitor (Moor Instruments) to verify occlusion. Afterwards, the embolus was ligated permanently into the vessel and the neck incision was closed. Animals were treated with Ketoprofen IM (10 mg/kg) for three days post-surgery.
(§2) For the NAGH studies, vehicle or NAGH were prepared fresh each day. Daily subcutaneous injections (s.c) were administered beginning about 24 hours after MCAO and continued daily to about 72 hours post-surgery (FIG. 1). Animals received a total of 3 injections. A total of 84 animals were randomly assigned into 2 groups: Rats treated with vehicle (40% DMSO in sterile saline, n=42), or rats treated with 0.86 mg/kg NAGH (n=42).
For NAD testing, a total of 32 animals were randomly assigned into 2 groups: Vehicle (n=16), and rat treated with 2.8 mg/kg NAD (n=16). Vehicle consisted of 40% DMSO in sterile saline.
Spontaneous Activity was measured during both the day (1 hr) and night (12 hrs) using an automated activity monitor (VersaMax, Accuscan Instruments, Inc). Spontaneous Activity was measured prior to stroke to establish the normal baseline for each individual animal as well as 1 month after the MCAO. The animals were placed in a Plexiglas box and allowed to roam freely. There is a three dimensional infrared array in this box and when a beam is broken, activity is recorded. A total of sixteen parameters were measured including: Vertical movement, Horizontal movement, and Stereotypic activity were selected for analysis: Horizontal activity (HA), Total distance travelled (TD), Number of movements (MVN), Movement time (MVT), Vertical activity (VA), Number of vertical movements (VMN), vertical time (VT), Stereotype counts (SC), Number of Stereotypy (SN), Stereotypy time (ST), Clockwise rotation (CR), counterclockwise rotation (CCR), Margin distance (MD), Marginal time (MT), Center distance (CD), and Center time (CT). The data are presented as mean+SEM of percent of baseline behavior.

[2] = tested on: rats following MCAO; assay: Brain infarction quantification (Nissl thionin) after MCAO; settings: s.c. daily for 3 days from 24 h post-MCAO (NAGH 0.86 mg/kg, NAD 2.8 mg/kg); 30 days post MCAO; mean±SEM
Description: All animal procedures were performed according to the University of South Florida guidelines for the care and use of animals and protocols were reviewed and approved by the Institutional Animal Care and Use Committee and adhered to the NIH guidelines for the care and use of animals. Adult male Sprague Dawley rats (Harlan) weighing about 250-300 g at the time of surgery were used for the study. All animals were housed two per cage in a temperature controlled room, under a 12 hour light-dark cycle, and given access to water and food ad libitum. Animals were monitored daily for wellness and biweekly for weight loss. For the NAGH studies, a total of 84 animals were randomly assigned to 2 groups: MCAO only (n=42) and rat treated with NAGH (n=42) beginning 24 hour after MCAO.
as §1, §2
For the studies with other compounds based on the structure of DTG, twenty-four hours after MCAO, the rats began a sigma agonist treatment regimen. Vehicle or drug was prepared fresh each day. […]
Infarct size was determined by Nissl thionin staining. […]

[3] = tested on: rats following MCAO; assay: Elevated body swing test after MCAO; settings: 30 days after MCAO; p=0.009
Description: as §1, with “Afterwards, the embolus was ligated permanently into the vessel and the neck incision was closed. Animals were treated with Ketoprofen IM (10 mg/kg) for three days post-surgery.” left out
The animal was placed in a Plexiglas box (40×40×35.5 cm), allowed to habituate for 2 minutes and attain a neutral position, defined as having all four paws on the ground. […] A swing was recorded whenever the animal moved its head out of the vertical axis to the right or left over […]. Swings were recorded using a hand counter. […]

Cl.N=C(Nc1cccc2ccccc12)Nc1cccc2ccccc12 [NAGH, N,N′-di-1-Naphthylguanidine hydrochloride]
Daytime horizontal activities vs DMSO ([1]; 1-hr test): no significant differences
Daytime vertical time (VT) vs DMSO ([1]; 1-hr test, p=0.01): significantly less active
Daytime vertical activity (VA) vs DMSO ([1]; 1-hr test, p=0.03): significantly less active
Daytime number of vertical movements (VMN) vs DMSO ([1]; 1-hr test, p=0.15): more active than DMSO group
Daytime stereotypy activity (SC, SN, ST) decrease vs DMSO ([1]; 1-hr test, p>0.05): failed to reach a statistically significant level
Nighttime horizontal parameters decrease vs DMSO ([1]; 12-hr test): did not reach statistical significance
Nighttime stereotypic behavior (SC, SN, ST) vs DMSO ([1]; 12-hr test): did not show any significant difference
Nighttime vertical activity (VA) vs DMSO ([1]; 12-hr test, p=0.01): significantly less active
Nighttime number of vertical movements (VMN) vs DMSO ([1]; 12-hr test, p=0.015): significantly more active
Nighttime vertical time (VT) vs DMSO ([1]; 12-hr test, p=0.03): significantly less active
Infarct volume (percent of hemisphere) [2]: 13.58±2.3%
EBST bias vs DMSO [3]: significantly less bias
